Experimental data as given in US20190196073A1, “COMPOSITION, FILM, NEAR INFRARED CUT FILTER, PATTERN FORMING METHOD, LAMINATE, SOLID IMAGE PICKUP ELEMENT, IMAGE DISPLAY DEVICE, CAMERA MODULE, AND INFRARED SENSOR” (FUJIFILM Corporation, priority 2016, published 2019).
≈ marks a conversion by molar mass, not a printed value.

Assays:
physchem = details: 25 °C, organic solvent or mixture, thermodynamic from solid
Description: (§1) Under the atmospheric pressure, about 100 mg (a precisely weighed value is represented by X mg) of the near infrared absorbing compound is added to 1 L of propylene glycol methyl ether acetate at 25° C., and the components are stirred for 30 minutes. Next, the solution is left to stand for 5 minutes and then is filtered, and the filtrate is dried under reduced pressure at 80° C. for 2 hours is precisely weighed (a precisely weighed value is represented by Y mg). The solubility of the near infrared absorbing compound dissolved in propylene glycol methyl ether acetate is calculated from the following expression.

[1] = Measurement of absorption maximum of near infrared absorbing compound in solution; format: physicochemical
Text: In addition, in the present invention, a case where the near infrared absorbing compound “has an absorption maximum in a wavelength range of 650 to 1000 nm” represents the near infrared absorbing compound has a maximum absorbance in a wavelength range of 650 to 1000 nm in an absorption spectrum of the near infrared absorbing compound in a solution. A measurement solvent used for measuring an absorption spectrum of the near infrared absorbing compound in the solution is not particularly limited as long as the near infrared absorbing compound is soluble therein. From the viewpoint of solubility, for example, chloroform, dimethylformamide, tetrahydrofuran, or methylene chloride can be used. For example, in the case of a compound which is soluble in chloroform, chloroform is used as the measurement solvent. In the case of a compound which is not soluble in chloroform, methylene chloride is used. In addition, in the case of a compound which is not soluble in chloroform and methylene chloride, dimethylformamide is used. In addition, in the case of a compound which is not soluble in chloroform, methylene chloride, and dimethylformamide, tetrahydrofuran is used.
<Measurement of Absorption Maximum of Near Infrared Absorbing Compound>
A near infrared absorbing compound shown in the following tables was dissolved in a measurement solvent shown in the following tables to prepare a sample solution. Using a spectrophotometer U-4100 (manufactured by Hitachi High-Technologies Corporation), an absorbance of the sample solution in a wavelength range of 300 to 1300 nm was measured to obtain an absorption maximum.

[2] = Measurement of solubility of near infrared absorbing compound in propylene glycol methyl ether acetate; details: for solubility at 30 min: propylene glycol methyl ether acetate, 25 °C, organic solvent or mixture, thermodynamic from solid
Description: as §1

With O=C1C(=C2C(O)=CC(=[N+]3c4ccccc4-c4ccccc43)C=C2O)C([O-])=C1c1c(O)cc(-n2c3ccccc3c3ccccc32)cc1O [Example A-38] the solubility at 30 min (physchem) was 0.88 µg/mL (≈ 1.4 µM) and the “Absorption Maximum” value ([1]; measurement solvent Chloroform) was 750 nm.

In the case of CC1N(C)c2cc(NC(=O)CSC(=N)N)c(C3=C([O-])/C(=c4\cc5c(cc4NC(=O)CSC(=N)N)=[N+](C)C(C)C5(C)C)C3=O)cc2C1(C)C (stereo not drawn) [Example A-23], the solubility at 30 min (physchem) is reported as 5.62 µg/mL (≈ 8.13 µM) and the “Absorption Maximum” value ([1]; measurement solvent Chloroform) is reported as 708 nm.

With “4,5-octakis(phenylthio)-3,6-{tetrakis(2,6-dimethylphenoxy)-tetrakis(n-hexyamino)}copper phthalocyanine [AR-1, reference compound]” the “Absorption Maximum” value ([1]; measurement solvent Chloroform) was 780 nm.

For O=C1C(c2ccc(N3CCCCC3)cc2NC(=O)C(F)(F)F)=C([O-])/C1=C1\C=CC(=[N+]2CCCCC2)C=C1NC(=O)C(F)(F)F [Example A-39], the solubility at 30 min (physchem) was 2.68 µg/mL (≈ 4.3 µM) and the “Absorption Maximum” value ([1]; measurement solvent Chloroform) was 698 nm.

In the case of CC1N(C)c2cc(NC(=O)c3ccc4c(c3)C(=O)N(C)C4=O)c(C3=C([O-])/C(=c4\cc5c(cc4NC(=O)c4ccc6c(c4)C(=O)N(C)C6=O)=[N+](C)C(C)C5(C)C)C3=O)cc2C1(C)C (stereo not drawn) [Example A-24], the solubility at 30 min (physchem) is reported as 7.88 µg/mL (≈ 9.46 µM) and the “Absorption Maximum” value ([1]; measurement solvent Chloroform) is reported as 711 nm.

For C/C(C1=C(O)/C(=C(/C)C2=Nc3ccccc3C2CCN)C1=O)=C1/Nc2ccccc2C1CCN (stereo not drawn) [Example A-28], the solubility at 30 min (physchem) was 1.92 µg/mL (≈ 4.22 µM) and the “Absorption Maximum” value ([1]; measurement solvent Chloroform) was 737 nm.

In the case of CCNC(=O)NC1=CC(=[N+](CC)CC)C=C/C1=C1/C(=O)C(c2ccc(N(CC)CC)cc2NC(=O)NCC)=C1[O-] [Example A-25], the solubility at 30 min (physchem) is reported as 2.51 µg/mL (≈ 4.57 µM) and the “Absorption Maximum” value ([1]; measurement solvent Chloroform) is reported as 680 nm.

For CC1C(/C=C2/C(=O)C(/C=C3/C(C)c4cc(C(N)=O)ccc4N3C)=C2[O-])=[N+](C)c2ccc(C(N)=O)cc21 (stereo not drawn) [Example A-26], the solubility at 30 min (physchem) was 11.2 µg/mL (≈ 23.2 µM) and the “Absorption Maximum” value ([1]; measurement solvent Chloroform) was 665 nm.

In the case of O=C1C(c2ccc(N(c3ccccc3)c3ccccc3)cc2NS(=O)(=O)C(F)(F)F)=C(O)/C1=C1/C=CC(N(c2ccccc2)c2ccccc2)=C/C1=N\S(=O)(=O)C(F)(F)F [Example A-30], the solubility at 30 min (physchem) is reported as 3.58 µg/mL (≈ 4.15 µM) and the “Absorption Maximum” value ([1]; measurement solvent Chloroform) is reported as 737 nm.

With CCN1/C(=C/C2=C([O-])C(=C\c3sc4ccccc4[n+]3CC)/C(=O)C2=O)Sc2ccccc21 [Example A-43] the solubility at 30 min (physchem) was 2.22 µg/mL (≈ 4.82 µM) and the “Absorption Maximum” value ([1]; measurement solvent Chloroform) was 848 nm.

In the case of O=C1C(c2ccc3cccc4c3c2NB(c2ccc(O)cc2)N4)=C(O)/C1=c1/ccc2cccc3c2c1=NB(c1ccc(O)cc1)N3 [Example A-31], the solubility at 30 min (physchem) is reported as 7.69 µg/mL (≈ 12.9 µM) and the “Absorption Maximum” value ([1]; measurement solvent Chloroform) is reported as 823 nm.

For c1ccc2cc3c(cc2c1)C1=NC3=Nc2c3cc4ccccc4cc3c3[n]2[Cu][n]2c(c4cc5ccccc5cc4c2=NC2=NC(=N3)c3cc4ccccc4cc32)=N1 [Example A-3], the Solubility ([2]; in propylene glycol methyl ether acetate at 25° C., about 100 mg added to 1 L) was 0.33 µg/mL and the “Absorption Maximum” value ([1]; measurement solvent Chloroform) was 775 nm.

For CNC(=O)Nc1cc(N2CCCC2)c(C)cc1C1=C([O-])/C(=c2\cc3c4c(c2NC(=O)NC)CCC[N+]=4CCC3)C1=O [Example A-41], the solubility at 30 min (physchem) was 0.94 µg/mL (≈ 1.69 µM) and the “Absorption Maximum” value ([1]; measurement solvent Chloroform) was 710 nm.

For CCN1/C(=C/C2=C([O-])C(=C/c3sc4c5ccccc5ccc4[n+]3CC)/C2=O)Sc2c1ccc1ccccc21 [Example A-32], the solubility at 30 min (physchem) was 0.42 µg/mL (≈ 0.788 µM) and the “Absorption Maximum” value ([1]; measurement solvent Chloroform) was 705 nm.

For NC(=O)C1N=c2/c(=C3/C(=O)C(c4ccc5cccc6c5c4NC(C(N)=O)N6)=C3O)ccc3cccc(c23)N1 (stereo not drawn) [Example A-29], the solubility at 30 min (physchem) was 0.57 µg/mL (≈ 1.13 µM) and the “Absorption Maximum” value ([1]; measurement solvent Chloroform) was 810 nm.

In the case of O=C1c2ccc3c4ccc5c6ccc7c8ccc9c%10c(ccc(c%11ccc(c%12ccc(c%13ccc(c2c3%13)C(=O)N1c1ccccc1)c4c5%12)c6c7%11)c%108)C(=O)N(c1ccccc1)C9=O [Example A-2], the solubility at 30 min [2] is reported as 0.64 µg/mL (≈ 0.809 µM) and the “Absorption Maximum” value ([1]; measurement solvent Methylene Chloride) is reported as 765 nm.

For CCOc1ccc(OCC)c2c1C1=NC/2=N\c2c3c(OCC)ccc(OCC)c3c3[n]2[Zn][n]2/c(c4c(OCC)ccc(OCC)c4/c2=N/C2=NC(=N\3)/c3c(OCC)ccc(OCC)c32)=N\1 [Example A-6], the solubility at 30 min [2] was 15.5 µg/mL and the “Absorption Maximum” value ([1]; measurement solvent Chloroform) was 744 nm.

For CC1=CC(=[N+](c2ccccc2)c2ccccc2)S/C1=C1/C(=O)C(c2sc(N(c3ccccc3)c3ccccc3)cc2C)=C1[O-] [Example A-40], the solubility at 30 min (physchem) was 11.2 µg/mL (≈ 18.4 µM) and the “Absorption Maximum” value ([1]; measurement solvent Chloroform) was 706 nm.

In the case of NC(=O)c1cccc(N2C(=O)NC(=O)/C(=C/C=C(/C=C/c3c([O-])[nH]c(=O)n(-c4cccc(C(N)=O)c4)c3=O)c3ccccc3)C2=O)c1.[K+] [Example A-4], the solubility at 30 min [2] is reported as 5.82 µg/mL and the “Absorption Maximum” value ([1]; measurement solvent Dimethylformamide) is reported as 740 nm.

In the case of CCN(CC)c1cc2[nH]c(=O)c3ccc(cc3)c(=O)[nH]c3cc(=[N+](CC)CC)c(C)cc3c3c([O-])c(c3=O)c2cc1C [Example A-36], the solubility at 30 min (physchem) is reported as 4.29 µg/mL (≈ 7.6 µM) and the “Absorption Maximum” value ([1]; measurement solvent Chloroform) is reported as 715 nm.

For CC(=O)NC1=CC(=[N+]2CCCC2)C(C)=C/C1=C1/C(=O)C(c2cc(C)c(N3CCCC3)cc2NC(C)=O)=C1[O-] [Example A-35], the solubility at 30 min (physchem) was 5.11 µg/mL (≈ 9.93 µM) and the “Absorption Maximum” value ([1]; measurement solvent Chloroform) was 700 nm.

In the case of CCOC(=O)NC1=CC(=[N+](CC)CC)C=C/C1=C1/C(=O)C(c2ccc(N(CC)CC)cc2NC(=O)OCC)=C1[O-] [Example A-34], the solubility at 30 min (physchem) is reported as 7.72 µg/mL (≈ 14 µM) and the “Absorption Maximum” value ([1]; measurement solvent Chloroform) is reported as 680 nm.

In the case of CCCCCCCC(CCCCCCC)N1C(=O)c2ccc3c4ccc5c6ccc7c8ccc9c%10c(ccc(c%11ccc(c%12ccc(c%13ccc(c2c3%13)C1=O)c4c5%12)c6c7%11)c%108)C(=O)N(C(CCCCCCC)CCCCCCC)C9=O [AR-4, reference compound], the solubility at 30 min [2] is reported as 32.1 µg/mL (≈ 30.3 µM) and the “Absorption Maximum” value ([1]; measurement solvent Chloroform) is reported as 765 nm.

For CC(=O)NC1CCC2(CC1)N=c1/c(=C3/C(=O)C(c4ccc5cccc6c5c4NC4(CCC(NC(C)=O)CC4)N6)=C3O)ccc3cccc(c13)N2 (stereo not drawn) [Example A-27], the solubility at 30 min (physchem) was 6.74 µg/mL (≈ 10.1 µM) and the “Absorption Maximum” value ([1]; measurement solvent Chloroform) was 810 nm.

With O=C1C2=C(c3cnc4ccccc4n3)N(B(c3ccccc3)c3ccccc3)C(=O)C2=C(c2cnc3ccccc3n2)N1B(c1ccccc1)c1ccccc1 [Example A-21] the solubility at 30 min (physchem) was 5.47 µg/mL (≈ 7.59 µM) and the “Absorption Maximum” value ([1]; measurement solvent Chloroform) was 710 nm.

In the case of CC1(C)c2ccccc2N(c2cc(O)c(C3=C([O-])C(=C4C(O)=CC(=[N+]5c6ccccc6C(C)(C)c6ccccc65)C=C4O)C3=O)c(O)c2)c2ccccc21 [Example A-37], the solubility at 30 min (physchem) is reported as 0.65 µg/mL (≈ 0.912 µM) and the “Absorption Maximum” value ([1]; measurement solvent Chloroform) is reported as 675 nm.
